Measurements taken from the supplement of paper PMC7394473.

Key:
Settings in all cases: 72 h
U2OS [1] = assay: GR50 (concentration giving GR = 0.5)
Experimental: (§1)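 U2OS cells treated with full dose titrations of drug; live and dead cells counted by STACK microscopy (mKate2 nuclei, SYTOX Green) at 72 h, biological triplicates. GR and FV dose responses were fitted with 4-parameter logistic models (GR lower bound -1). GRADE (0-100) is the rescaled angle of a linear fit of FV versus GR at doses with GR >= 0, giving the percentage of the response due to cell death.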

U2OS [2] = assay: fractional viability (live cells / total cells); higher = less cell death
Experimental: (§2)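 U2OS::Nuc-mKate2 cells seeded in 96-well plates and treated with eight- to ten-point half-log or log dilutions of drug in the presence of 50 nM SYTOX Green. Live (mKate2+) and dead (SYTOX+) cells were counted by IncuCyte STACK live-cell microscopy at 72 h; biological triplicates. GR is the normalised growth-rate inhibition value (Hafner 2016; 1 = untreated growth, <0 = population shrinking). FV is live/(live+dead) cells, not normalised.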

U2OS [3] = assay: FV IC50 (concentration giving fractional viability 0.5); higher = less potent killing
Experimental: as §1

U2OS [4] = assay: drug GRADE (percent of response due to cell death) (% (0-100)); higher = more death-driven response
Experimental: as §1

U2OS [5] = assay: GRmin (fitted minimal GR value at highest effect) (GR value (dimensionless)); higher = less efficacious
Experimental: as §1

U2OS [6] = assay: normalized growth rate inhibition value (GR) relative to untreated cells (GR value (dimensionless, 1 = untreated growth)); higher = less growth inhibition
Experimental: as §2

Structure (SMILES): COC(=O)c1ccc2c(c1)NC(=O)/C2=C(\Nc1ccc(N(C)C(=O)CN2CCN(C)CC2)cc1)c1ccccc1 [Bibf-1120]
- GR50 (U2OS [1]): 0.845 µM
- fractional viability (U2OS [2]; 0.01 µM): 0.981
- fractional viability (U2OS [2]; 0.0316 µM): 0.975
- fractional viability (U2OS [2]; 0.1 µM): 0.974
- fractional viability (U2OS [2]; 0.316 µM): 0.947
- fractional viability (U2OS [2]; 1 µM): 0.758
- fractional viability (U2OS [2]; 3.16 µM): 0.092
- fractional viability (U2OS [2]; 10 µM): 0.00465
- fractional viability (U2OS [2]; 31.6 µM): 0.00201
- FV IC50 (U2OS [3]): 1480 nM
- drug GRADE (U2OS [4]): 50.6
- GRmin (U2OS [5]): -0.805
- normalized growth rate inhibition value (U2OS [6]; 0.01 µM): 1.08
- normalized growth rate inhibition value (U2OS [6]; 0.0316 µM): 1.04
- normalized growth rate inhibition value (U2OS [6]; 0.1 µM): 0.935
- normalized growth rate inhibition value (U2OS [6]; 0.316 µM): 0.813
- normalized growth rate inhibition value (U2OS [6]; 1 µM): 0.427
- normalized growth rate inhibition value (U2OS [6]; 3.16 µM): -0.468
- normalized growth rate inhibition value (U2OS [6]; 10 µM): -0.767
- normalized growth rate inhibition value (U2OS [6]; 31.6 µM): -0.767

Structure (SMILES): CC(C)C[C@H](NC(=O)[C@H](Cc1ccccc1)NC(=O)c1cnccn1)B(O)O [Bortezomib]
- GR50 (U2OS [1]): 0.0115 µM
- fractional viability (U2OS [2]; 0.01 µM): 0.919
- fractional viability (U2OS [2]; 0.0316 µM): 0.432
- fractional viability (U2OS [2]; 0.1 µM): 0.00995
- fractional viability (U2OS [2]; 0.316 µM): 0.00177
- fractional viability (U2OS [2]; 1 µM): 0.00348
- fractional viability (U2OS [2]; 3.16 µM): 0.00249
- fractional viability (U2OS [2]; 10 µM): 0.00121
- fractional viability (U2OS [2]; 31.6 µM): 0.000942
- FV IC50 (U2OS [3]): 29.4 nM
- drug GRADE (U2OS [4]): 17.4
- GRmin (U2OS [5]): -0.899
- normalized growth rate inhibition value (U2OS [6]; 0.01 µM): 0.572
- normalized growth rate inhibition value (U2OS [6]; 0.0316 µM): -0.293
- normalized growth rate inhibition value (U2OS [6]; 0.1 µM): -0.811
- normalized growth rate inhibition value (U2OS [6]; 0.316 µM): -0.912
- normalized growth rate inhibition value (U2OS [6]; 1 µM): -0.874
- normalized growth rate inhibition value (U2OS [6]; 3.16 µM): -0.887
- normalized growth rate inhibition value (U2OS [6]; 10 µM): -0.913
- normalized growth rate inhibition value (U2OS [6]; 31.6 µM): -0.902

Structure (SMILES): Nc1cc(C(F)(F)F)c(-c2cc(N3CCOCC3)nc(N3CCOCC3)n2)cn1 [Buparlisib]
- GR50 (U2OS [1]): 0.439 µM
- fractional viability (U2OS [2]; 0.00100578 µM): 0.986
- fractional viability (U2OS [2]; 0.00317827 µM): 0.984
- fractional viability (U2OS [2]; 0.0100433 µM): 0.986
- fractional viability (U2OS [2]; 0.0317369 µM): 0.986
- fractional viability (U2OS [2]; 0.100289 µM): 0.985
- fractional viability (U2OS [2]; 0.316912 µM): 0.976
- fractional viability (U2OS [2]; 1.00144 µM): 0.868
- fractional viability (U2OS [2]; 3.16456 µM): 0.558
- fractional viability (U2OS [2]; 10 µM): 0.404
- FV IC50 (U2OS [3]): 4100 nM
- drug GRADE (U2OS [4]): 15.2
- GRmin (U2OS [5]): -0.554
- normalized growth rate inhibition value (U2OS [6]; 0.00100578 µM): 0.914
- normalized growth rate inhibition value (U2OS [6]; 0.00317827 µM): 0.956
- normalized growth rate inhibition value (U2OS [6]; 0.0100433 µM): 0.959
- normalized growth rate inhibition value (U2OS [6]; 0.0317369 µM): 0.899
- normalized growth rate inhibition value (U2OS [6]; 0.100289 µM): 0.77
- normalized growth rate inhibition value (U2OS [6]; 0.316912 µM): 0.704
- normalized growth rate inhibition value (U2OS [6]; 1.00144 µM): 0.0802
- normalized growth rate inhibition value (U2OS [6]; 3.16456 µM): -0.224
- normalized growth rate inhibition value (U2OS [6]; 10 µM): -0.493

Structure (SMILES): CC[C@@]1(O)C(=O)OCc2c1cc1n(c2=O)Cc2cc3ccccc3nc2-1 [Camptothecin]
- GR50 (U2OS [1]): 0.00513 µM
- fractional viability (U2OS [2]; 0.001 µM): 0.969
- fractional viability (U2OS [2]; 0.00316 µM): 0.949
- fractional viability (U2OS [2]; 0.01 µM): 0.91
- fractional viability (U2OS [2]; 0.0316 µM): 0.898
- fractional viability (U2OS [2]; 0.1 µM): 0.869
- fractional viability (U2OS [2]; 0.316 µM): 0.661
- fractional viability (U2OS [2]; 1 µM): 0.448
- fractional viability (U2OS [2]; 3.16 µM): 0.213
- FV IC50 (U2OS [3]): 761 nM
- drug GRADE (U2OS [4]): 25.1
- GRmin (U2OS [5]): -0.368
- normalized growth rate inhibition value (U2OS [6]; 0.001 µM): 0.83
- normalized growth rate inhibition value (U2OS [6]; 0.00316 µM): 0.651
- normalized growth rate inhibition value (U2OS [6]; 0.01 µM): 0.219
- normalized growth rate inhibition value (U2OS [6]; 0.0316 µM): 0.0844
- normalized growth rate inhibition value (U2OS [6]; 0.1 µM): 0.0979
- normalized growth rate inhibition value (U2OS [6]; 0.316 µM): -0.0587
- normalized growth rate inhibition value (U2OS [6]; 1 µM): -0.211
- normalized growth rate inhibition value (U2OS [6]; 3.16 µM): -0.411
